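Assay format: 96-well plates, 48-hour exposure. GI50 marks 50% less growth. TGI is the concentration that stops growth completely.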
Experiments:
Experiment in all cases: NCI tumour cell line growth inhibition, 48 h
786-0 renal = test system: 786-0 renal
A498 renal = test system: A498 renal
A549 NSCLC = test system: A549 NSCLC
ACHN renal = test system: ACHN renal
CAKI-1 renal = test system: CAKI-1 renal
CCRF-CEM leukemia = test system: CCRF-CEM leukemia
COLO 205 colon = test system: COLO 205 colon
DU-145 prostate = test system: DU-145 prostate
EKVX NSCLC = test system: EKVX NSCLC
HCC-2998 colon = test system: HCC-2998 colon
HCT-116 colon = test system: HCT-116 colon
HCT-15 colon = test system: HCT-15 colon
HL-60(TB) leukemia = test system: HL-60(TB) leukemia
HOP-62 NSCLC = test system: HOP-62 NSCLC
HOP-92 NSCLC = test system: HOP-92 NSCLC
HS 578T breast = test system: HS 578T breast
HT29 colon = test system: HT29 colon
K-562 leukemia = test system: K-562 leukemia
KM12 colon = test system: KM12 colon
LOX IMVI melanoma = test system: LOX IMVI melanoma
M14 melanoma = test system: M14 melanoma
MALME-3M melanoma = test system: MALME-3M melanoma
MCF7 breast = test system: MCF7 breast
MDA-MB-231 breast = test system: MDA-MB-231 breast
MDA-MB-435 = test system: MDA-MB-435
MOLT-4 leukemia = test system: MOLT-4 leukemia
NCI-H226 lung = test system: NCI-H226 lung
NCI-H23 lung = test system: NCI-H23 lung
NCI-H460 lung = test system: NCI-H460 lung
NCI/ADR-RES ovarian = test system: NCI/ADR-RES ovarian
OVCAR-3 ovarian = test system: OVCAR-3 ovarian
OVCAR-4 ovarian = test system: OVCAR-4 ovarian
OVCAR-5 ovarian = test system: OVCAR-5 ovarian
OVCAR-8 ovarian = test system: OVCAR-8 ovarian
PC-3 prostate = test system: PC-3 prostate
RPMI-8226 leukemia = test system: RPMI-8226 leukemia
RXF 393 renal = test system: RXF 393 renal
SF-268 CNS = test system: SF-268 CNS
SF-295 CNS = test system: SF-295 CNS
SF-539 CNS = test system: SF-539 CNS
SK-MEL-2 melanoma = test system: SK-MEL-2 melanoma
SK-MEL-5 melanoma = test system: SK-MEL-5 melanoma
SK-OV-3 ovarian = test system: SK-OV-3 ovarian
SNB-19 CNS = test system: SNB-19 CNS
SNB-75 CNS = test system: SNB-75 CNS
SR leukemia = test system: SR leukemia
SW-620 colon = test system: SW-620 colon
TK-10 renal = test system: TK-10 renal
U251 CNS = test system: U251 CNS
UACC-62 melanoma = test system: UACC-62 melanoma
UO-31 renal = test system: UO-31 renal
SK-MEL-28 melanoma = test system: SK-MEL-28 melanoma
UACC-257 melanoma = test system: UACC-257 melanoma

Compound: Cc1ccc(S(=O)(=O)NC(=O)Nc2ccc(C(=O)O)c(O)c2)cc1
- TGI (786-0 renal): > 100 µM
- TGI (A498 renal): > 100 µM
- TGI (A549 NSCLC): > 100 µM
- TGI (ACHN renal): > 100 µM
- TGI (CAKI-1 renal): > 100 µM
- TGI (CCRF-CEM leukemia): > 100 µM
- TGI (COLO 205 colon): > 100 µM
- TGI (DU-145 prostate): > 100 µM
- TGI (EKVX NSCLC): > 100 µM
- TGI (HCC-2998 colon): > 100 µM
- TGI (HCT-116 colon): > 100 µM
- TGI (HCT-15 colon): > 100 µM
- TGI (HL-60(TB) leukemia): > 100 µM
- TGI (HOP-62 NSCLC): > 100 µM
- TGI (HOP-92 NSCLC): > 100 µM
- TGI (HS 578T breast): > 100 µM
- TGI (HT29 colon): > 100 µM
- TGI (K-562 leukemia): > 100 µM
- TGI (KM12 colon): > 100 µM
- TGI (LOX IMVI melanoma): > 100 µM
- TGI (M14 melanoma): > 100 µM
- TGI (MALME-3M melanoma): > 100 µM
- TGI (MCF7 breast): > 100 µM
- TGI (MDA-MB-231 breast): > 100 µM
- TGI (MDA-MB-435): > 100 µM
- TGI (MOLT-4 leukemia): > 100 µM
- TGI (NCI-H226 lung): > 100 µM
- TGI (NCI-H23 lung): > 100 µM
- TGI (NCI-H460 lung): > 100 µM
- TGI (NCI/ADR-RES ovarian): > 100 µM
- TGI (OVCAR-3 ovarian): > 100 µM
- TGI (OVCAR-4 ovarian): > 100 µM
- TGI (OVCAR-5 ovarian): > 100 µM
- TGI (OVCAR-8 ovarian): > 100 µM
- TGI (PC-3 prostate): > 100 µM
- TGI (RPMI-8226 leukemia): > 100 µM
- TGI (RXF 393 renal): > 100 µM
- TGI (SF-268 CNS): > 100 µM
- TGI (SF-295 CNS): > 100 µM
- TGI (SF-539 CNS): > 100 µM
- TGI (SK-MEL-2 melanoma): > 100 µM
- TGI (SK-MEL-5 melanoma): > 100 µM
- TGI (SK-OV-3 ovarian): > 100 µM
- TGI (SNB-19 CNS): > 100 µM
- TGI (SNB-75 CNS): > 100 µM
- TGI (SR leukemia): > 100 µM
- TGI (SW-620 colon): > 100 µM
- TGI (TK-10 renal): > 100 µM
- TGI (U251 CNS): > 100 µM
- TGI (UACC-62 melanoma): > 100 µM
- TGI (UO-31 renal): > 100 µM

Compound: CCCCCCCCCCCC[n+]1c(C)cc(N)c2ccccc21
- GI50 (DU-145 prostate): 0.67 µM
- TGI (DU-145 prostate): 1.97 µM
- GI50 (HOP-92 NSCLC): 0.167 µM
- TGI (HOP-92 NSCLC): 1.19 µM
- GI50 (NCI/ADR-RES ovarian): 3.18 µM
- TGI (NCI/ADR-RES ovarian): > 100 µM
- GI50 (OVCAR-4 ovarian): 0.327 µM
- TGI (OVCAR-4 ovarian): 1.6 µM
- GI50 (OVCAR-5 ovarian): 1.57 µM
- TGI (OVCAR-5 ovarian): 3.28 µM
- GI50 (SK-MEL-2 melanoma): 1.27 µM
- TGI (SK-MEL-2 melanoma): 2.72 µM
- GI50 (SK-MEL-28 melanoma): 1.18 µM
- TGI (SK-MEL-28 melanoma): 2.47 µM
- GI50 (SK-MEL-5 melanoma): 0.364 µM
- TGI (SK-MEL-5 melanoma): 1.4 µM
- GI50 (SK-OV-3 ovarian): 1.13 µM
- TGI (SK-OV-3 ovarian): 2.36 µM
- GI50 (UACC-257 melanoma): 0.249 µM
- TGI (UACC-257 melanoma): 0.915 µM
